Laboratory results reported in patent US5607967A, “Treatment of alzheimer's disease with 5-(tetradecyloxy)-2-furan carboxylic acid” (Merck & Co., Inc., priority 1994, dated 1997).

Experiments:
GR/NER chimeric receptor = test: Ligand dependent transcription assay, GR/NER chimeric receptor with MMTV-luciferase reporter; type: cell-based, human
Protocol: To search for putative ligands for the NER receptor, the chimeric receptor GR/NER was prepared. […] Chimeric receptors were prepared in which the amino terminal portion of the mouse glucocorticoid receptor (mGR) that includes the DNA binding domain was fused to the putative ligand binding domains of the nuclear receptor NER to form the respective chimeric receptor GR/NER. The cDNA sequences coding for amino acid residues Arg^155 and Glu^156 of the hNER receptor (Shinar et al., NER, a new member of a gene family encoding the steroid hormone nuclear receptor; GENE (in press) were convened to the Xho I restriction site, which site was later used for the ligation to the GR cDNA sequences that coded for the DNA binding domain. Thus, the amino acid residues Arg^155 and Glu^156 of the NER receptor were convened to amino acid residues Ser^155 and His^156.
The chimera was employed in ligand dependent transactivation assays with the reporter gene MMTV-luciferase, in which the luciferase cDNA is transcribed under the control of the MMTV promoter.
(§1) Similar hybrid receptors GR/NER, GR/NUC and GR/PPAR, in identical expression plasmid backgrounds were prepared essentially as described for the construction of the GR/mPPAR and GR/NUC chimeric receptors in Schmidt et al., "Identification of a new member of the steroid hormone receptor superfamily that is activated by a peroxisome proliferator and fatty acids," Mol. Endocrinol., 6(10):1634-41, 1992, and in Boie et al., "Enantioselective activation of the peroxisome proliferator-activated receptor", J. Biol. Chem. 268(8):5530-4, 1993.
(§2) Briefly, the amino terminal portion of the mouse glucocorticoid receptor (mGR), that includes the DNA binding domain was fused to the putative ligand binding domains of the nuclear receptor NER, hNUC-I (Schmidt et al., 1992), mPPAR (Issenmann and Green, 1990) to form the respective chimeric receptors GR/NER, GR/NUC and GR/PPAR. The GR/NER chimeric receptor was constructed as described for the GR/NUC and GR/PPAR hybrid receptors (Schmidt et al., 1992; Boie et al). The cDNA sequences coding for amino acids Arg^155 and Glu^156 of the NER receptor were converted to the Xho I restriction site, that was later used for the ligation to the GR cDNA sequences that coded for the DNA binding domain. Thus, converting amino acid residues Arg^155 and Glu^156 of NER receptor to amino acid residues Ser^155 and His^156.

GR/NUC chimeric receptor = target: T1, GR/NUC chimeric receptor (Homo sapiens, UniProt Q03181); test: Ligand dependent transcription assay, GR/NUC chimeric receptor with MMTV-luciferase reporter; type: cell-based
T1 construct: transfected cells, MMTV-luciferase
T1 sequence (Q03181 1-441): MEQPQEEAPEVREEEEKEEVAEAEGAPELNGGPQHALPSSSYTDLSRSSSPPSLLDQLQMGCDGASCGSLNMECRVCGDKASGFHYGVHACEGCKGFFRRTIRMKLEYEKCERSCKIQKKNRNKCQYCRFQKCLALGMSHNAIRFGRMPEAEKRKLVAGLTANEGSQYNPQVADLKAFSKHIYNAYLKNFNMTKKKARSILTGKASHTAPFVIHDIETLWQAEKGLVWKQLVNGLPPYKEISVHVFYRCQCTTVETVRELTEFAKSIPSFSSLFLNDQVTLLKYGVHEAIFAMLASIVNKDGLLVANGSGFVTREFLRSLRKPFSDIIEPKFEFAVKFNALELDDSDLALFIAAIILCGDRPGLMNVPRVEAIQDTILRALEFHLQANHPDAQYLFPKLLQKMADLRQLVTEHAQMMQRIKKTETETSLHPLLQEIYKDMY
T1 sequence (P06537 1-792 partner): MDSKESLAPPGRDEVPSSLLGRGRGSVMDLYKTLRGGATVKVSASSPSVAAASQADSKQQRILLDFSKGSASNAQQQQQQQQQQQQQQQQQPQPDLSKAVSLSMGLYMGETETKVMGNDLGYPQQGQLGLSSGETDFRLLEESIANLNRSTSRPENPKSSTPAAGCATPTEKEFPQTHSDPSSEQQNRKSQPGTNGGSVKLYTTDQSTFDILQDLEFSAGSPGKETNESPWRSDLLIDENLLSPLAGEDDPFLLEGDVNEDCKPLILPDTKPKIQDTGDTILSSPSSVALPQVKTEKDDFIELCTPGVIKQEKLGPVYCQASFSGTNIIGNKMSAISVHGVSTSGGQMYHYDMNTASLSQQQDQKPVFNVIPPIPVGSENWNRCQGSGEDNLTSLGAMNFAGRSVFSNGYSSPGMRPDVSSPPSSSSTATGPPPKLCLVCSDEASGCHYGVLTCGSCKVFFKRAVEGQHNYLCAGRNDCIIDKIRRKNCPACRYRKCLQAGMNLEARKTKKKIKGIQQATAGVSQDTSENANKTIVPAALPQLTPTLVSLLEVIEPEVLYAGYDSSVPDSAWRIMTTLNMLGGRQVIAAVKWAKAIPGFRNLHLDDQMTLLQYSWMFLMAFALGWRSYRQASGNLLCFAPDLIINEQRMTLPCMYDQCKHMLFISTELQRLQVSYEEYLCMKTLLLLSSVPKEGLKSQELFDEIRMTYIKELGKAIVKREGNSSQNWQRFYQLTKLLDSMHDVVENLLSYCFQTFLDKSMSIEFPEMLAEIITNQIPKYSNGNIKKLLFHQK
Protocol: as §1, §2

[1] = read-out: Fold of stimulation GR/NUC

CCCCCCCCCCCCCCOc1ccc(C(=O)O)o1 [TOFA, 5-(tetradecyloxy)-2-furan carboxylic acid]
Expression mediated by GR/NER (GR/NER chimeric receptor): stimulated expression | Fold of stimulation GR/NER (GR/NER chimeric receptor; 2 μM): 2.35 ± 0.09 fold | Fold of stimulation GR/NER (GR/NER chimeric receptor; 10 μM): 3.66 ± 0.40 fold | Fold of stimulation GR/NER (GR/NER chimeric receptor; 20 μM): 4.82 ± 0.28 fold | Expression mediated by GR/NUC (GR/NUC chimeric receptor): stimulated expression | fold induction at 2 µM (GR/NUC chimeric receptor; [1]): 1.95 ± 0.14 | fold induction at 10 µM (GR/NUC chimeric receptor; [1]): 2.85 ± 0.2 | fold induction at 50 µM (GR/NUC chimeric receptor; [1]): 3.19 ± 0.2
